Experimental data: ChEMBL document CHEMBL1123297, “9-(2-Fluorobenzyl)-6-(methylamino)-9H-purine hydrochloride. Synthesis and anticonvulsant activity” (J Med Chem, 1986)

Columns and labels:
[1] = (§1) Compound was evaluated for the anticonvulsant activity in rats.; type: organism-based; settings: rat, in vivo
Rattus norvegicus [2] = species on record: Rattus norvegicus; assay: as §1; type: organism-based; settings: in vivo
Rattus norvegicus [3] = assay: Compound was evaluated for the anticonvulsant activity by testing its ability to protect against maximal electroshock- induced seizures in rats; Intravenous administration (iv); type: functional
Mus musculus [4] = assay: Concentration required to protect 50 % of mice against hind limb extensor component in MES test when administered intraperitoneally; type: functional; settings: Hindlimb, ip
Mus musculus [5] = assay: Concentration required to protect 50 % of mice against hind limb extensor component in MES test when administered perorally; type: functional; settings: Hindlimb, po
Rattus norvegicus [6] = assay: Compound was evaluated for the anticonvulsant activity by testing its ability to protect against maximal electroshock- induced seizures in rats after peroral administration (po); type: functional
Rattus norvegicus [7] = assay: Compound was evaluated for the anticonvulsant activity by testing its ability to protect against maximal electroshock- induced seizures in rats; Intraperitoneal administration (ip); type: functional
Mus musculus [8] = assay: Concentration required to protect 50 % of mice against hind limb extensor component in MES test when administered intravenously; type: functional; settings: Hindlimb, iv
Rattus norvegicus [9] = assay: Compound was evaluated for the anticonvulsant activity by testing its ability to protect against maximal electroshock- induced seizures in rats; Peroral administration (po); type: functional

SMILES | LD50 [1] | LD50 (Rattus norvegicus [2]) | ED50 (Rattus norvegicus [3]) | ED50 (Mus musculus [4]) | ED50 (Mus musculus [5]) | ED50 (Rattus norvegicus [6]) | ED50 (Rattus norvegicus [7]) | ED50 (Mus musculus [8]) | ED50 (Rattus norvegicus [9])
CNc1ncnc2c1ncn2Cc1ccccc1F [BW-A78U] | > 1000 mg/kg | > 500 mg/kg | 0.2 mg/kg | 5 mg/kg | 14 mg/kg | 2.5 mg/kg | 1.7 mg/kg | 4 mg/kg | –
O=C1NC(=O)C(c2ccccc2)(c2ccccc2)N1 [PHENYTOIN] | – | – | 4 mg/kg | 9 mg/kg | 22 mg/kg | – | 10 mg/kg | 1.8 mg/kg | 20 mg/kg
